In patent publication US5159061A, “Atrial natriuretic peptide derivative” (Takeda Chemical Industries, Ltd., priority 1986, dated 1992):
Where two headings read alike, the source gives them in different places. Where a SMILES comes first, the peptide text is derived from it. Bridges are numbered along the chain shown (N, C = ends). [ ]: non-standard residue; d: D form. Aib = CC(C)(N)C(=O)O

Legend:
[1] = test system: spontaneously hypertensive rats (SHR); assay: Hypotensive action in spontaneously hypertensive rats (SHR); format: in vivo, rat; conditions: male SHR, 20 weeks old; intravenous 100 μg/250 μl/kg in physiological saline; maximum decrease in blood pressure, difference from preadministration value
Procedure: Hypotensive action in spontaneously hypertensive rats (SHR)
Three male SHRs at the age of 20 weeks in each group were anesthetized with pentobarbital (50 mg/kg, intraperitoneal administration); SP-10 and SP-45 polyethylene tubes (manufactured by Natsume Seisakusho, Japan) were inserted respectively into the groin artery and vein, and through each of these a cannula was passed to the neck site via the back subcutaneous tissue, and one end of the cannula was fixed there. The rats were used in experiments the following day. As a α-hANP derivatives, [Aib^6 ]-α-hANP[6-28] obtained in Example 1 and [Aib^6,Ile^12 ]-α-hANP[6-28] obtained in Example 8, and as a control, α-hANP[7-28], in solution in physiological saline, were each intravenously administered in the ratio of 100 μg/250 μl/kg of body weight. Hypotensive activities are shown as a degree of the maximum decrease in blood pressure (difference from the preadministration value) that occurred after the administration of the subject compound.

[2] = the molecule shown is the open-chain precursor, disulfide bond, 2 steps
[3] = 53-membered ring, air (after HF deprotection)
[4] = 53-membered ring, air/NH4OAc/NH3 pH 6.9, water, 0.052 mM, 25.0 °C

Compound: CC[C@H](C)[C@@H]1NC(=O)[C@H](CCCNC(=N)N)NC(=O)[C@H](CC(=O)O)NC(=O)[C@H](CCSC)NC(=O)[C@H](CCCNC(=N)N)NC(=O)CNC(=O)CNC(=O)[C@H](Cc2ccccc2)NC(=O)[C@@H](NC(=O)C(C)(C)N)CSSC[C@@H](C(=O)N[C@@H](CC(N)=O)C(=O)N[C@@H](CO)C(=O)N[C@@H](Cc2ccccc2)C(=O)N[C@@H](CCCNC(=N)N)C(=O)N[C@@H](Cc2ccc(O)cc2)C(=O)O)NC(=O)CNC(=O)[C@H](CC(C)C)NC(=O)CNC(=O)[C@H](CO)NC(=O)[C@H](CCC(N)=O)NC(=O)[C@H](C)NC(=O)CNC1=O [[Aib^6]-α-hANP[6-28]] (H-[Aib]CFGGRMDRIGAQSGLGCNSFRY-OH; disulfide 2-18)
- Degree of Decrease in Blood Pressure [1]: -70 ΔmmHg

Compound: H-Ala-Cys-Phe-Gly-Gly-Arg-Met-Asp-Arg-Ile-Gly-Ala-Gln-Ser-Gly-Leu-Gly-Cys-Asn-Ser-Phe-Arg-Tyr-OH
- ring closure, isolated yield [2, 3]: 14%

Compound: H-Ile-Cys-Phe-Gly-Gly-Arg-Met-Asp-Arg-Ile-Gly-Ala-Gln-Ser-Gly-Leu-Gly-Cys-Asn-Ser-Phe-Arg-Tyr-OH
- ring closure, isolated yield [2, 3]: 11%

Compound: H-Aib-Cys-Phe-Gly-Gly-Arg-Leu-Asp-Arg-Ile-Gly-Ala-Gln-Ser-Gly-Leu-Gly-Cys-Asn-Ser-Phe-Arg-Tyr-OH
- ring closure, isolated yield [2, 3]: 22%

Compound: H-Cys-Phe-βAla-Arg-Met-Asp-Arg-Ile-Gly-Ala-Gln-Ser-Gly-Leu-Gly-Cys-Asn-Ser-Phe-Arg-Tyr-OH
- ring closure, isolated yield ([2]; 51-membered ring, air/NH4OAc/NH3 pH 6.9, water, 0.056 mM, 25.0 °C): 17%

Compound: H-Cys-Phe-dAla-Gly-Arg-Met-Asp-Arg-Ile-Gly-Ala-Gln-Ser-Gly-Leu-Gly-Cys-Asn-Ser-Phe-Arg-Tyr-OH
- ring closure, isolated yield ([2]; 53-membered ring, air/NH4OAc/NH3 pH 6.9, water, 0.053 mM, 25.0 °C): 16%

Compound: H-dAla-Cys-Phe-Gly-Gly-Arg-Met-Asp-Arg-Ile-Gly-Ala-Gln-Ser-Gly-Leu-Gly-Cys-Asn-Ser-Phe-Arg-Tyr-OH
- ring closure, isolated yield [2, 3]: 17%

Compound: H-Aib-Cys-Phe-Gly-Gly-Arg-Met-Asp-Arg-Ile-Gly-Ala-Gln-Ser-Gly-Leu-Gly-Cys-Asn-Ser-Phe-Arg-Tyr-OH
- ring closure, isolated yield [2, 4]: 12%

Compound: H-Val-Cys-Phe-Gly-Gly-Arg-Met-Asp-Arg-Ile-Gly-Ala-Gln-Ser-Gly-Leu-Gly-Cys-Asn-Ser-Phe-Arg-Tyr-OH
- ring closure, isolated yield [2, 3]: 16%

Compound: H-Cys-Phe-Ava-Arg-Met-Asp-Arg-Ile-Gly-Ala-Gln-Ser-Gly-Leu-Gly-Cys-Asn-Ser-Phe-Arg-Tyr-OH
- ring closure, isolated yield ([2]; 53-membered ring, air/NH4OAc/NH3 pH 6.9, water, 0.055 mM, 25.0 °C): 30%

Compound: H-Achc-Cys-Phe-Gly-Gly-Arg-Met-Asp-Arg-Ile-Gly-Ala-Gln-Ser-Gly-Leu-Gly-Cys-Asn-Ser-Phe-Arg-Tyr-OH
- ring closure, isolated yield [2, 4]: 22%

Compound: H-Cys-Phe-Gly-Arg-Met-Asp-Arg-Ile-Gly-Ala-Gln-Ser-Gly-Leu-Gly-Cys-Asn-Ser-Phe-Arg-Tyr-OH
- ring closure, isolated yield ([2]; 50-membered ring, air/NH4OAc/NH3 pH 6.9, water, 0.056 mM, 25.0 °C): 18%

Compound: H-Cys-Phe-Gaba-Arg-Met-Asp-Arg-Ile-Gly-Ala-Gln-Ser-Gly-Leu-Gly-Cys-Asn-Ser-Phe-Arg-Tyr-OH
- ring closure, isolated yield ([2]; 52-membered ring): 20%

Compound: H-Aib-Cys-Phe-Gly-Gly-Arg-Nle-Asp-Arg-Ile-Gly-Ala-Gln-Ser-Gly-Leu-Gly-Cys-Asn-Ser-Phe-Arg-Tyr-OH
- ring closure, isolated yield [2, 3]: 14.4%

Compound: CC[C@H](C)[C@@H]1NC(=O)[C@H](CCCNC(=N)N)NC(=O)[C@H](CC(=O)O)NC(=O)[C@H]([C@@H](C)CC)NC(=O)[C@H](CCCNC(=N)N)NC(=O)CNC(=O)CNC(=O)[C@H](Cc2ccccc2)NC(=O)[C@@H](NC(=O)C(C)(C)N)CSSC[C@@H](C(=O)N[C@@H](CC(N)=O)C(=O)N[C@@H](CO)C(=O)N[C@@H](Cc2ccccc2)C(=O)N[C@@H](CCCNC(=N)N)C(=O)N[C@@H](Cc2ccc(O)cc2)C(=O)O)NC(=O)CNC(=O)[C@H](CC(C)C)NC(=O)CNC(=O)[C@H](CO)NC(=O)[C@H](CCC(N)=O)NC(=O)[C@H](C)NC(=O)CNC1=O [[Aib^6, Ile^12]-α-hANP[6-28]] (H-[Aib]CFGGRIDRIGAQSGLGCNSFRY-OH; disulfide 2-18)
- Degree of Decrease in Blood Pressure [1]: -90 ΔmmHg

Compound: H-Cys-Phe-Gly-Gly-Arg-DL-Chg-Asp-Arg-Ile-Gly-Ala-Gln-Ser-Gly-Leu-Gly-Cys-Asn-Ser-Phe-Arg-Tyr-OH
- ring closure, isolated yield [2, 3]: 38%

Compound: H-Cys-Phe-Gly-Gly-Arg-Met-Asp-Arg-Ile-Gly-Ala-Gln-Ser-Gly-Leu-Gly-Cys-Asn-Ser-Phe-dArg-Tyr-OH
- ring closure, isolated yield [2, 3]: 25%
